Source: paper PMC9884808, “Pharmacokinetics, tissue distribution, and antitumor activity of a novel compound, NY-2, in non-small cell lung cancer” (Frontiers in Pharmacology, 2023)

Experiments:
LoVo = assay: MTT cell viability assay; assay type: cell-based, human; conditions: Homo sapiens, LoVo colorectal cancer cells
Procedure: The human colorectal cancer cell lines, HCT116 and LoVo, the breast cancer cell line, T47D, the hepatocellular carcinoma cell line, HepG2, the normal human liver cell line, HL7702, human umbilical vein endothelial cells (HUVECs), and the non-small cell lung cancer cell lines, A549, H1993, HCC827, H460, were purchased from the American Type Culture Collection (Manassas, VA, United States). Cell lines were cultured in the recommended RPMI-1640 medium (AE24464298, Hyclone, United States) and DMEM medium (AE29422278, Hyclone, United States) supplemented with 10% fetal bovine serum (FBS; JC63470, FB15015, Clark, United States) with 1% penicillin-streptomycin. Cells were maintained in an incubator at 37°C with 5% CO2 (HF90,Sanyo, Japan) and passaged every 48–72 h, after detaching with 0.25% trypsin (Sigma, United States). The compounds ZLDI-8 and NY-1 to -15 were synthesized in the laboratory of Dr. Huaiwei Ding in Shenyang Pharmaceutical University, and verified by high-performance liquid chromatography (purity >95%) for use in experiments (Supplementary Figure S1). Paclitaxel was purchased from MedChemExpress (HY-B0015, 99.97% purity, United States).
Cell viability was measured by the MTT assay. HCT116, HL7702, A549, H1993, HCC827, and H460 cells were dispensed into 96-well plates at a density of 1 × 10^5 cells/mL. After 24–48 h incubation, cells were treated with the compounds at different concentrations for the indicated periods. An assay kit (WLA073, Wanlei Co., Liaoning, China), was used according to the manufacturer’s instructions to measure LDH activity, The absorbance at 450 nm was measured with a microplate reader (Elx-800, Bio-Rad, China).
The preliminary antitumor activity of the series of ZLDI-8 derivatives, NY-1 to -15 was screened by the MTT cell viability assay. […] The antitumor activity of NY-2 on HCT116 cells was concentration- and time-dependent, and slightly better than that of the original compound, ZLDI-8.

[1] = Hepatotoxicity and nephrotoxicity experiments in KM mice; assay type: in vivo; conditions: for pathological changes of liver and kidney tissues (H&E): vs control; for effect on overall antioxidant capacity: T-AOC kit, ABTS method
Procedure: Animal experiments were approved by the Ethics Committee on Laboratory Animal Management of Shenyang Pharmaceutical University (Approval Document No. SYPU-SQ-001). All animals received humane care according to the local guidelines for the Care and Use of Laboratory Animals of the Shenyang Pharmaceutical University. All animals were housed under specific pathogen-free (SPF) conditions at 25°C with 50% humidity, with free access to food and water for 7 days to adapt. KM mice (male, 4–5 weeks old and weighing 18–22 g) were purchased from Liaoning Changsheng Biotechnology Co., Ltd. (Liaoning, China, animal license #SCXK-2020–0001). For the hepatotoxicity and nephrotoxicity assays, NY-2 was injected via tail vein into KM mice, and the results were used in deciding on the test dose for antitumor activity in a nude mouse cancer model. Its influence on the immune system was also determined. The treatment groups were ZLDI-8, NY-2, DMSO control, and normal saline control, with six mice in each group. The mice were fasted for 12 h before the experiment, but were allowed to drink water freely. ZLDI-8 and NY-2 were dissolved in 1% DMSO containing 1% Tween and 6 mg/kg was administered by a daily tail vein injection for seven consecutive days ([Lu et al., 2020]).
After injection of the compounds, blood was drawn and serum was collected for the determination of ALT and AST levels (Nanjing Jiancheng Bioengineering Institute, China, C009-2-1 and C010-2-1) to assess liver function. Serum creatinine (sCr, Nanjing Jiancheng Bioengineering Institute, China, C011-2-1) and blood urea nitrogen (BUN, Nanjing Jiancheng Bioengineering Institute, China, C013-2-1) were measured to assess renal function. Tumor necrosis factor-α (TNF-α, Cusabio, Wuhan, China, CSB-E04741m) and interleukin-6 (IL-6, Cusabio, Wuhan, China, CSB-E04639m) were used as markers to evaluate the immune inflammatory response, and an assay kit (T-AOC, S0119, Beyotime) was used to measure total antioxidant capacity by the ABTS method. Mice were euthanized by cervical dislocation, liver and kidney tissue was removed and fixed in formalin, dehydrated in ethanol, embedded in paraffin, and sectioned for staining with hematoxylin and eosin (H&E).
KM mice were treated with ZLDI-8 or NY-2 by tail vein injection (6 mg/kg) for 7 days, then the mice were euthanized and liver and kidney tissues were removed and sectioned. For the experiment with BALB/c nude mice, the tail vein injections of NY-2 (6 mg/kg) were continued for 28 days, and the lungs, tumor, heart, liver, and kidney were removed. Trimmed tissue samples were fixed in 4% paraformaldehyde for 24 h, dehydrated in graded ethanol solutions, embedded in paraffin and sectioned. Sections for staining were dewaxed with xylene and then rehydrated, and hematoxylin-eosin staining was performed, after which the sections were again dehydrated in ethanol and cleared with xylene before being mounted on a slide, cover-slipped and examined microscopically. The remainder of the tumors and tissues was frozen in liquid nitrogen for other studies.

[2] = 6 mg/kg daily tail vein injection, 7 days

Row | SMILES | IC50 (LoVo) | effect on IL-6 and TNF-α levels compared with the control group [1, 2] | levels of AST, ALT, sCr, and BUN compared with the control group ([1]; 6 mg/kg daily tail vein injection, 7 days, serum) | pathological changes of liver and kidney tissues (H&E) [1, 2] | effect on overall antioxidant capacity [1] | BUN compared with the control group ([1]; 6 mg/kg daily tail vein injection, 7 days, serum, only significant difference)
1 | Cc1c(C=C2C(=O)NC(=S)NC2=O)c2ccccc2n1CCOc1ccc(F)cc1 [NY-2] | 5.82 µM | no significant effect | no significant differences | no obvious pathological changes | neither ZLDI-8 nor NY-2 had any overt effect | 
2 | Cc1ccc(OCCn2c(C)c(C=C3C(=O)NC(=S)NC3=O)c3ccccc32)c(C)c1 [ZLDI-8, reference compound] | 9.65 µM | no significant effect |  | no obvious pathological changes | neither ZLDI-8 nor NY-2 had any overt effect | possible decrease
